{
  "source": "paper PMC11208336",
  "about": "(Frontiers in Cellular and Infection Microbiology, 2024)",
  "target": "T1, HmuY^Pe (Porphyromonas endodontalis, UniProt C3JC46)",
  "T1 construct": "gene POREN0001_0444",
  "T1 sequence (C3JC46 entry or part of it)": "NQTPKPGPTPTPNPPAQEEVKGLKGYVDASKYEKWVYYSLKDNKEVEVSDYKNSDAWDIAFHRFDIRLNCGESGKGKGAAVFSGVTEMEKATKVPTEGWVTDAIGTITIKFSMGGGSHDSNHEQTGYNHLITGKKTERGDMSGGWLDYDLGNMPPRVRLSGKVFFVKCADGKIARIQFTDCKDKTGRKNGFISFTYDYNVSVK",
  "experiment": "biochemical",
  "data": [
    {"smiles": "C=CC1=C(C)C2=Cc3c(C=C)c(C)c4[n]3[Fe][n]3c(c(C)c(CCC(=O)O)c3=CC3=NC(=C4)C(C)=C3CCC(=O)O)=CC1=N2", "note": "[Fe(II)heme]", "values": [
      {"measurement": "Kd", "value": 41, "unit": "nM"}
    ]}
  ]
}
